Bounds are passed on as bounds.

Compound `Clc1cccc(-n2ccnc2)n1` displayed a melting point of 71 to 73 °C. The value for `CCCCN(c1nc(N(CC)CC)nc(N(CCCC)C2CC(C)(C)NC(C)(C)C2)n1)C1CC(C)(C)NC(C)(C)C1` was 74 to 76 °C; that for `COC(=O)CCc1ccc(OCc2nc(-c3ccccc3)c(-c3ccccc3)o2)cc1` was 92 to 95 °C. With `COc1ccc(Cl)cc1C(=O)NCCc1ccc(Br)c(S(=O)(=O)N=CN(C)C)c1` the figure was 150 to 152 °C; with `Cc1cc(C)cc(-c2nc(N)sc2-c2ccnc(OCc3ccccc3)c2)c1`, 141 to 143 °C.

As to `O=C1N2CCc3ccsc3C23SC1(c1ccccc1)CC3[N+](=O)[O-]` (stereo not given), the melting point was in the range of 192 to 196 °C.

`CCCCCCN(CCCCCC)c1ccc(C=CC2=C(C#N)C(=C(C#N)C#N)OC2(C)C)s1` returned a melting point of 172 °C. With `OC1CCc2cnc3c(c21)CCO3` (stereo not given) the figure was 130 to 131 °C; with `C[Si](C)(C)CCOC1OC(CO)C(O)C(O)C1N=[N+]=[N-]` (stereo not given), 158 to 161 °C.

As to `CCCc1c(OCCCOc2ccc(NC(=O)c3nnn[nH]3)cc2)ccc(C(C)=O)c1O`, the melting point is 200 to 202 °C. With `O=C1c2cc(O)ccc2OCN1CCO` the figure was 148 to 150 °C; with `COc1cc2c(cc1OC)-c1c(C=O)c(C#N)cn1CC2`, 220 to 221 °C; with `CC(C)c1cccc(NC(=O)[C@H](Br)C(C)C)c1O`, 108 to 109 °C. The value for `CCOC(=O)c1[nH]cc2c1NC1=C(C(=O)CCC1)C2c1cnc(Sc2nc3ccccc3[nH]2)s1` (stereo not given) was 194 °C; that for `N#Cc1c(OCC(F)(F)F)nc(CO)nc1N1CCc2ccccc2CC1` was 106 to 110 °C; that for `N#CCC=Cc1ccccc1S(N)(=O)=O` was 144 to 145 °C.

`CN1CCN(C(=O)COc2cccc(CCNS(=O)(=O)c3ccc(Cl)cc3)c2)CC1` registered a melting point of 139 to 141 °C. The value for `O=C(NCc1ccc(Cl)cc1)c1cnc2c(F)cc(O)cc2c1O` was 310 to 313 °C; that for `Oc1ccc(Nc2ncc3ncc(Cl)cc3n2)cc1` was 232 to 234 °C. `O=C(NC1=NN(c2ccccc2)CC1)C(F)(F)F`: the melting point was in the range of 163 to 165 °C. With `CCc1nc2c(N)nc3ccc(O)cc3c2n1C` the figure was above 240 °C; with `CC1(C)OC[C@H](Cc2ccccc2)N1C(=O)C(=O)c1ccn(-c2ccc(-c3ccccc3)cc2)c1`, 150 to 152 °C. With `CC(CO)(CO)Nc1nc(SCc2cccc(F)c2F)nc2nc(N)cnc12` the figure was 220 to 227 °C. The value for `COc1ccccc1C1(O)OC(=O)C(c2ccc3c(c2)OCO3)=C1Cc1ccc2nsnc2c1` (stereo not given) was 172 °C; that for `COCCN1CCc2ccc(Nc3ncc(Cl)c(Nc4ccccc4S(=O)(=O)N4CCC(O)C4)n3)cc2CC1` (stereo not given) was 120 to 128 °C; that for `Cc1ccccc1-c1nn(C(C)C(=O)N(C)C)cc1Cl` (stereo not given) was 69 to 71.5 °C. As to `CCOC(=O)C1=CC2(CCC1S(=O)(=O)Nc1ccc(F)cc1Cl)SCCS2` (stereo not given), the melting point was 160 to 161 °C.

For `CC(=O)OC1OCC[C@@H]1NC(=O)[C@H](CC(C)C)NC(=O)[C@H](CC(C)C)NC(=O)c1ccc2c(c1)Nc1ccccc1S2` (stereo not given in full), the melting point lay in the range of 121 to 122 °C. The value for `O=C(CN1CCN(CCSc2nc3cccc(C(F)(F)F)c3o2)CC1)Nc1c(C(F)(F)F)cc(OCc2ccccc2)cc1C(F)(F)F` was 156 to 158 °C.

Compound `Cc1nc(-c2n[nH]c(Cc3ccccc3)n2)sc1C(=O)NCc1ccccc1` showed a melting point of 235 to 237 °C.

For orientation: melting point means the temperature of the solid-liquid transition.

The record behind these values is a melting point compilation (Tetko et al.; mined from patent text by program, amines drawn as free bases though some values may be those of a salt).
